Data as given in PMC9945182 (Chemical Research in Toxicology, 2023).

Legend:
CYP2A6 [1] = target: T1, CYP2A6 (Homo sapiens, UniProt P11509); assay type: biochemical; details: 10 μM inhibitor; nicotine substrate; CYP2A6 microsomes; vs 100% activity control
T1 sequence (P11509 1-494): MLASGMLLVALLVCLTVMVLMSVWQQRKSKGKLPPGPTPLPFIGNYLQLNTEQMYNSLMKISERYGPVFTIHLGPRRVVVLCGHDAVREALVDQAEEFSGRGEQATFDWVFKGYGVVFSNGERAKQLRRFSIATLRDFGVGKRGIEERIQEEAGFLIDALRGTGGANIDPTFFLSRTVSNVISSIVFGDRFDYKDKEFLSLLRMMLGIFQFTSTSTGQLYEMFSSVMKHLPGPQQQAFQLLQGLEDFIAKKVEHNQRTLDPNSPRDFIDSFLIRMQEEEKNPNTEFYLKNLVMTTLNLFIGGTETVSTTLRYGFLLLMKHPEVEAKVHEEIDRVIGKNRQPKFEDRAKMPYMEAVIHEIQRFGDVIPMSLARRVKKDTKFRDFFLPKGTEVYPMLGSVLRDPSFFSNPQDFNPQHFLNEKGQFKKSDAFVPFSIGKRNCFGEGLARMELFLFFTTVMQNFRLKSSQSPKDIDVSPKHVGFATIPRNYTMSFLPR

CYP2A6 [2] = target: T1, CYP2A6; assay type: biochemical; details: 10 μM inhibitor; nicotine substrate; CYP2A6 microsomes
CYP2B6 = target: T2, CYP2B6 (Homo sapiens, UniProt P20813); assay type: biochemical; details: human, microsomes from CYP2B6-overexpressing HEK293 cells, pH 7.4, probe nicotine (cotinine formation)
T2 sequence (P20813 1-491): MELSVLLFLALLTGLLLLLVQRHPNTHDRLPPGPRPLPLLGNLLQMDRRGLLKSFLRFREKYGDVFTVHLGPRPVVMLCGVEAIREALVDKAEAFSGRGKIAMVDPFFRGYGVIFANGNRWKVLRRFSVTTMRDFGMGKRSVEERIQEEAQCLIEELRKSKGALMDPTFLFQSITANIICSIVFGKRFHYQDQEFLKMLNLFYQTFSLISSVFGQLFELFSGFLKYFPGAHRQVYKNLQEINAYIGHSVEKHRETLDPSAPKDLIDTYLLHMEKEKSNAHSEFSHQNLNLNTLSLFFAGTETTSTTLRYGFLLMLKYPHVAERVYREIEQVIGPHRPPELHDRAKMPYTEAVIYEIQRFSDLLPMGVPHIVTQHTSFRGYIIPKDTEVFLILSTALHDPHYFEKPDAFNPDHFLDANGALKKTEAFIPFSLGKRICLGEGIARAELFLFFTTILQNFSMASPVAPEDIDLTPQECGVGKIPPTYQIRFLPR

UGT2B7 = target: T3, UGT2B7 (Homo sapiens, UniProt P16662); assay type: biochemical; details: human, microsomes from UGT2B7-overexpressing HEK293 cells, pH 7.4, probe 3HC (30 mM), 3HC-Gluc formation
T3 sequence (P16662 24-529): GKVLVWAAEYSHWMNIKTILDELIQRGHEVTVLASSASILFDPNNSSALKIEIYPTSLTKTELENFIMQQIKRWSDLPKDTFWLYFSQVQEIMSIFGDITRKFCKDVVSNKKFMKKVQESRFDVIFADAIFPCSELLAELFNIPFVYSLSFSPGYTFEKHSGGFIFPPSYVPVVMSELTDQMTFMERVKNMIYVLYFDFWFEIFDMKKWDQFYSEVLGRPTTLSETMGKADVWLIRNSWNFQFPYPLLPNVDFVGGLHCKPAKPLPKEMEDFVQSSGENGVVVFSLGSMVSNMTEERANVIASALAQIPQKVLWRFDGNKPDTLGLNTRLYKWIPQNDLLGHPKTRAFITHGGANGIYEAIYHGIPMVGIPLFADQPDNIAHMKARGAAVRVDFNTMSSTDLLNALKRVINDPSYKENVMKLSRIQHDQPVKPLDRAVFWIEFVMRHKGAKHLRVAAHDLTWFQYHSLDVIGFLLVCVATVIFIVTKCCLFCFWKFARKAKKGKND

UGT2B17 = target: T4, UGT2B17 (Homo sapiens, UniProt O75795); assay type: biochemical; details: human, microsomes from UGT2B17-overexpressing HEK293 cells, pH 7.4, probe 3HC (30 mM), 3HC-Gluc formation
T4 sequence (O75795 24-530): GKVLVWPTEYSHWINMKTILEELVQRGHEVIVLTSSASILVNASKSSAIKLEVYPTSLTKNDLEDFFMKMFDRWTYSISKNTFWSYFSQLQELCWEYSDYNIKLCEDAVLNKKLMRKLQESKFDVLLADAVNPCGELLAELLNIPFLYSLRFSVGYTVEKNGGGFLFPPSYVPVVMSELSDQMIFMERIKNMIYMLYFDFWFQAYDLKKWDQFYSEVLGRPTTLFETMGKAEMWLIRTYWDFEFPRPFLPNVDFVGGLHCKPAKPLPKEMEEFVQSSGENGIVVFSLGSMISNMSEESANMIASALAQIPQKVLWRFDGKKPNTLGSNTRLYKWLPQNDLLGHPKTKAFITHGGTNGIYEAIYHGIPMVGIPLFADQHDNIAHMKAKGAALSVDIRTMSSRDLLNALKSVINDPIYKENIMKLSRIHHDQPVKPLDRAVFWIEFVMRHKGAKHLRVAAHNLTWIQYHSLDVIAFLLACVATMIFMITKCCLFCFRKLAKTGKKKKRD

[3] = majority of tobacco users; cited from earlier work
CYP2A6 [4] = details: cited from earlier work

SMILES: N[C@@H]1C[C@H]1c1ccccc1 (racemic) [tranylcypromine]
- inhibition of cotinine formation (CYP2A6 [1]): 70%
- inhibition of nornicotine formation (CYP2A6 [2]): 95%

SMILES: COC(=O)[C@H](c1ccccc1Cl)N1CCc2sccc2C1 [clopidogrel]
- inhibition at 30 min, 50 µM (CYP2B6): 60%

SMILES: Cc1ccc(NC(=O)c2ccc(CN3CCN(C)CC3)cc2)cc1Nc1nccc(-c2cccnc2)n1 [imatinib]
- inhibition at 200 µM (UGT2B7): ≤ 65%
- inhibition at 200 µM (UGT2B17): ≤ 65%

SMILES: CN1CCC[C@H]1c1cccnc1 [nicotine]
- fraction of nicotine metabolized to cotinine by CYP2A6 [3]: greater than 70%

SMILES: C#CCN(C)[C@H](C)Cc1ccccc1 [selegiline]
- Ki (CYP2A6 [4]): 4.6 µM
